Experiments:
HLM CYP enzymes = assay: Spectral study (binding difference spectra) of the interaction with HLM CYP enzymes; design: species or system human; settings: for Kd: HLM, CYP 1 µmol·L^−1 in 50 mmol·L^−1 potassium phosphate buffer pH 7.4, absorbance change at about 417 nm, room temperature, read-out: spectroscopic binding constant (KS); for mode of binding to HLM CYP enzymes (difference spectra): maximum at about 380 nm, minimum at about 417 nm (Type I binding spectra)
Source text: Spectral studies in the Soret region were used to detect the substrate-induced difference spectra of human liver microsomal (HLM) CYPs. […] The spectral change corresponds to the formation of a maximum formed at about 380 nm and a minimum at about 417 nm (Figure 2). The values of the corresponding spectroscopic binding constant (KS) for the tested compounds were 39.50 ± 10.06 µmol·L^−1 and 44.86 ± 9.88 µmol·L^−1, respectively. These values indicate the relatively specific binding of these complexes on CYPs.
Figure 2 Spectral determination of the interaction between tested complexes No. 5 (a) and No. 6 (b) and CYP in HLM. […] The concentration of CYP in microsomal preparation, 1 µmol·L^−1 in 50 mmol·L^−1 potassium phosphate buffer (pH 7.4).
The binding difference spectra of the interactions of complex No. 5 and complex No. 6 with microsomal CYP enzymes were followed according to established procedures. The cuvette contained HLM that was diluted to a final concentration of CYP 1 µmol·L^−1 in 50 mmol·L^−1 potassium phosphate buffer (pH 7.4). The tested compounds were dissolved in the same buffer, and the concentration ranges in experiments were 0–183 µmol·L^−1, obtained by diluting a 5 mmol·L^−1 stock solution. Spectra were recorded at room temperature by repetitive scanning between 300 and 700 nm at a scan speed of 200 nm/s. The baseline of the reference cuvette contained HLM diluted to the final concentration of CYP 1 µmol·L^−1 in 50 mmol·L^−1 potassium buffer (pH 7.4). Spectra were recorded on a Varian 4000 UV/VIS spectrophotometer (Varian, Palo Alto, CA, USA). The absorbance change at about 417 nm was plotted against the concentration of the tested compounds. Data were analyzed using the Sigma Plot v. 8.0 graphing software (Jandel Scientific, Chicago, IL, USA).

E. coli = tested on: E. coli; design: method as in doi:10.1016/j.ica.2022.121273; settings: Gram-negative; cited from earlier work
CYP2C9 = molecular target: T1, CYP2C9 (Homo sapiens, UniProt P11712); assay: Inhibition of CYP2C9 activity (diclofenac 4′-hydroxylation) in human liver microsomes; assay type: in vitro ADME; settings: HLM, diclofenac 16 µmol·L^−1, preincubation 30 min at 37 °C, Mean ± S.D.
T1 construct: Pooled human liver microsomes were obtained from Biopredic (Rennes, France); tissue Biopredic (Rennes, France); host or cells: pooled human liver microsomes, seventeen donors
Description: (§1) The following enzyme assays were performed to determine the activities of specific CYP enzymes: CYP1A2, 7-ethoxyresorufin O-deethylation; CYP2A6, coumarin 7-hydroxylation; CYP2B6, 7-ethoxy-4-(trifluoromethyl) coumarin (EFC) O-deethylation; CYP2C8 paclitaxel 6α-hydroxylation; CYP2C9, diclofenac 4′-hydroxylation; CYP2C19, diazepam N-desmethylation; CYP2D6, bufuralol 1′-hydroxylation; CYP2E1, chlorzoxazone 6-hydroxylation; and CYP3A4/5, testosterone 6β-hydroxylation. […]
(§2) For the determination of metabolites formed from specific substrates, a Prominence LC-20A HPLC system (Shimadzu, Kyoto, Japan) with UV detection or fluorescence detection was used (see Table 2). […]
(§3) Initially, for each enzyme assay, a preliminary experiment was carried out to determine Km and Vmax to obtain the appropriate concentration of the specific substrates for the inhibition experiments (the substrate concentration was chosen in the range corresponding to the value of the Km for each particular reaction). Data were analyzed using the Sigma plot software, as mentioned above, with spectral studies. […] In all cases, the inhibition of individual CYP activities was evaluated by plotting the respective remaining activity against the inhibitor concentration.

CYP2B6 = molecular target: T2, CYP2B6 (Homo sapiens, UniProt P20813); assay: Inhibition of CYP2B6 activity (EFC O-deethylation) in human liver microsomes; assay type: in vitro ADME; settings: HLM, EFC 15 µmol·L^−1, preincubation 30 min at 37 °C, Mean ± S.D.
T2 construct: Pooled human liver microsomes were obtained from Biopredic (Rennes, France); tissue Biopredic (Rennes, France); host or cells: pooled human liver microsomes, seventeen donors
T2 sequence (P20813 1-491): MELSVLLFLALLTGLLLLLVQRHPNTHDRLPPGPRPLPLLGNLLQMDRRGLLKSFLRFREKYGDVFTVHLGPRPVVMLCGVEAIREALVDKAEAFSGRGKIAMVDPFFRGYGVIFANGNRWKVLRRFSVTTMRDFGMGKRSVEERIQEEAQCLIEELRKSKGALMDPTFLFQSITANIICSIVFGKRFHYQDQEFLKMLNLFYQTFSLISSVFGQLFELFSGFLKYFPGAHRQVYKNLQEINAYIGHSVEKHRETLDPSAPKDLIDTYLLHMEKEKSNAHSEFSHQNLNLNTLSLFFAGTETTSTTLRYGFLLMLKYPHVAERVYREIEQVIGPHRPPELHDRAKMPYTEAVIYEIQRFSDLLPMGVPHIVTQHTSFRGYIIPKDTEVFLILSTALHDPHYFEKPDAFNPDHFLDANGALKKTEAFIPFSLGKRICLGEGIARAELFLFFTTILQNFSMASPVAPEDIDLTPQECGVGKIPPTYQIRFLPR
Description: as §1, §2, §3

T1 sequence (P11712 whole entry): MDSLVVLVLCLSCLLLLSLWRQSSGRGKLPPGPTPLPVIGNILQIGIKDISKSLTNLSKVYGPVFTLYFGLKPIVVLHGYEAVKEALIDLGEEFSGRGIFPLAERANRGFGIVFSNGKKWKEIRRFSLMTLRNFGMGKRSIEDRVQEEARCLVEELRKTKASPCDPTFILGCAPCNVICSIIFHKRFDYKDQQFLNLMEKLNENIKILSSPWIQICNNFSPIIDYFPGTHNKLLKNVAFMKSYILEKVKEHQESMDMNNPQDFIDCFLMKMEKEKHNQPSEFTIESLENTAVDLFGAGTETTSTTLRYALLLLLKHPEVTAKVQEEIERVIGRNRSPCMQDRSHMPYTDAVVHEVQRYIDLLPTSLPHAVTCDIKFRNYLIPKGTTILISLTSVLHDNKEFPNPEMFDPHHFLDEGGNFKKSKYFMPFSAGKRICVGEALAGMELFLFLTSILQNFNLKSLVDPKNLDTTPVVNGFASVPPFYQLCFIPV

| Compound | Kd (HLM CYP enzymes) [µM] | mode of binding to HLM CYP enzymes (difference spectra) (HLM CYP enzymes) | MIC E. coli (E. coli) [µg/mL] | IC50 (CYP2C9) [µM] | IC50 (CYP2B6) [µM] |
| --- | --- | --- | --- | --- | --- |
| CN(C)CCN(C)CCN(C)C.CN(C)CCN(C)CCN(C)C.O.O.O=C([O-])/C=C/C(=O)[O-].[Cu+2].[Cu+2].[O-][Cl+3]([O-])([O-])[O-].[O-][Cl+3]([O-])([O-])[O-] [Complex No. 5, [Cu2(μ-fu)(pmdien)2(H2O)2](ClO4)2] | 39.5 ± 10.1 | bind to HLM CYP enzymes as substrates | 8.44 | 12.59 ± 0.06 | 24.8 ± 0.33 |
| CN(C)CCN(C)CCN(C)C.CN(C)CCN(C)CCN(C)C.O.O.O=C([O-])CCSSCCC(=O)[O-].[Cu+2].[Cu+2].[O-][Cl+3]([O-])([O-])[O-].[O-][Cl+3]([O-])([O-])[O-] [Complex No. 6, [Cu2(μ-dtdp)(pmdien)2(H2O)2](ClO4)2] | 44.9 ± 9.88 | bind to HLM CYP enzymes as substrates | 16.88 | 12.26 ± 0.11 | 13.3 ± 0.54 |
